Assays:
PL proteins = details: 2012, cited from earlier work; for PL protein bound: ref Pike and Skuterud, 1982, Zhang et al
Caco-2 cells = assay: Caco-2 permeability screening; format: in vitro ADME; details: Caco-2
Method: (§1) Caco-2 cells were received from American Type Culture Collection and certified mycoplasma free. Cells were seeded on transwell plates (CoStar, growth area 0.33 cm^2/well, polycarbonate membrane, 0.33 μm pore size) between passage 20 and 27 and then analyzed between 21 and 25 days after wells were seeded to ensure enterocyte-like differentiation. Before assessing permeability, cells were washed once with Hank’s Balanced Salt Solution buffer, pH 7.4, and then incubated at 37 °C for 30 minutes. Transepithelial electrical resistance (TEER) was measured after equilibration before the experiment using an epithelial volt-ohmmeter (EVOM, World Precision Instruments), and cells were used if TEER > 250 Ω × cm^2. Cells were dosed to measure permeability from basolateral and apical sides at a concentration of 20 μM of test compound and 50 μM of Lucifer yellow. Lucifer yellow was used as a “zero permeability” marker to monitor the integrity of cell barrier. Samples were taken at 0 and 60 minutes from the donor side, and samples were taken at 30 and 60 minutes from the receiver side; media was replenished after the 30-minute sample was taken from both chambers. A calibration curve was prepared by serial dilution using the dosing solution in a 1:5 dilution. […] Samples were prepared for LC-MS/MS analysis by taking 100 μL of sample, adding 1 μM internal standard (GaSal-4 or GaSal-5), and crashing with 400 μL of methanol. Samples were centrifuged at 3000 rpm at 4 °C for 30 minutes, 200 μL of supernatant was transferred to a new plate, and 100 μL of water was added to each sample. Samples were vortexed and analyzed by LC-MS/MS as described earlier. […] To preliminarily evaluate organic cation transporter 1 (OCT1) or P-glycoprotein (P-gp)-dependent transport, transport studies were conducted with and without a 1 μM “inhibitor cocktail” alongside GaSal. […] The Papp for basolateral to apical, Papp apical to basolateral, and efflux ratio were reported for each compound. In order to calculate Papp, the concentration in the sampled time point was determined from the calibration curve and then converted to μg based on the volume of the chamber (0.2 mL for apical, 1.0 mL for basolateral). […] The calculation of Papp was determined using eq. […] Data are presented as the average ± SEM for each compound analyzed as n = 3 on 2 different days with 2 different cell line passages, for n = 6 total. GaSal is n = 3 on 3 different cell line passages since this was used as a test compound for the inhibition cocktail experiments.

[1] = Caco-2 permeability screening; format: in vitro ADME; details: human, Caco-2, pH 7.4, known drug standards
Method: as §1

[2] = Microsomal clearance assay; format: in vitro ADME, rat; details: 2 μM, rat liver microsomes
Method: Library compounds were tested in triplicate at a concentration of 2 μM and incubated in 0.1 M potassium phosphate buffer containing 12 mM MgCl2 and 8 mM NADPH at pH 7.4 with either 0.5 mg/mL of Sprague–Dawley liver microsomes (Invitrogen). Samples were incubated for 0, 3, 7, 12, 20, and 30 minutes. At the designated time point, the incubation reaction was stopped by adding 100 μL of ACN containing 1 μM of either GaSal-4 or GaSal-5 as the internal standards. […] 7-Ethoxycoumarin (Sigma) was used as a positive control in this experiment. Intrinsic clearance (CLint) was calculated using eq. 2:(2) CLint=0.693/InVitroT1/2∗IncubationVolume/mgofmicrosomes∗45mgmicrosomes/gramofliver∗45gramsliver/kgofbodyweight
The average CLint ± SEM was determined for each compound for 2 replicates per time point.

S9 clearance assay = format: in vitro ADME; details: Sprague-Dawley, pH 7.4, S9 rat liver fraction
Method: Select library compounds were tested in triplicate at a concentration of 2 μM and incubated in 0.1 M potassium phosphate buffer containing 12 mM MgCl2 and 8 mM NADPH at pH 7.4 with 2.5 mg/mL of Sprague–Dawley S9 (Invitrogen). Incubations contained a final concentration of 2.5 mM UDP glucuronic acid, 0.10 mM adenosine 3’-phosphate 5’-phosphosulfate, 0.5 mM acetyl CoA, and 50 μg/mg protein alamethicin. All co-factors were from Sigma. Samples were incubated for 0, 3, 7, 12, 20, and 30 minutes. At the designated time point, the incubation reaction was stopped by adding 100 μL of ACN containing 1 μM of either GaSal-4 or GaSal-5 as the internal standard. […] A hundred microliter of supernatant was taken for LC-MS/MS analysis. 7-Ethoxycoumarin (Sigma) was used as a positive control in this experiment. Clearance was calculated according to eq. 3:(3) CLint=0.693/InVitroT1/2∗IncubationVolume/mgofS9∗165mgS9/gramofliver∗45gramsliver/kgofbodyweight
The average CLint ± SEM was determined for each compound for 3 replicates per time point.

In the case of `CN(C)CCCN1c2ccccc2CCc2ccccc21` [imipramine], the PL protein bound (PL proteins) is given as greater than 90%.

For `CN(Cc1cnc2nc(N)nc(N)c2n1)c1ccc(C(=O)N[C@@H](CCC(=O)O)C(=O)O)cc1` [Methotrexate, reference compound], the “Permeability Ranking” value (Caco-2 cells) was “Not Permeable”, the efflux ratio at 60 min, 20 μM ([1]; read-out: Efflux Ratio B to A/ A to B) was 1.46 and the Papp A→B at 60 min, 20 μM ([1]; read-out: Papp Apical to Basolateral) was 0.2 ± 0.01 nm/s. The Papp B→A at 60 min, 20 μM ([1]; read-out: Papp Basolateral to Apical) was 0.3 ± 0.1 nm/s and the expected protein binding (PL proteins; control compounds, ref Zhang et al) was 50%.

In the case of `CN(C)CCC=C1c2ccccc2CCc2ccccc21` [amitriptyline], the PL protein bound (PL proteins) is listed as greater than 90%.

In the case of `CCOc1ccc2ccc(=O)oc2c1` [7-ethoxycoumarin, 7-Ethoxycoumarin, reference compound], the “concentration change over 30 minutes in microsomes” value [2] is reported as “metabolized by the microsomes”, the half-life at 2 µM (S9 clearance assay; average ± SEM n = 3) is reported as 25.2 ± 7.8 min and the CLint scaled at 2 μM (S9 clearance assay; average ± SEM n = 3, read-out: Predicted CLint (converted)) is reported as 11.4 L/h/kg.

Source: PMC12264554, “Application of preclinical absorption, distribution, metabolism, elimination in vitro techniques for the characterization and compound library optimization of novel antibiotic gallium salophen” (Drug Metabolism and Disposition, 2025)
